# From PubChem BioAssay AID449764 (Southern Research Specialized Biocontainment Screening …, 2010)
# Test system: Mycobacterium tuberculosis H37Rv growth inhibition, no glycerol
# Test: Mycobacterium tuberculosis H37Rv growth inhibition, no glycerol, confirmatory dose response (AID 449764);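 further: growth read after 7 days of incubation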
# Settings: not given
row,Structure (SMILES),IC50 [µM]
1,CCCOC(=O)/C(=C\c1ccc([N+](=O)[O-])o1)NC(=O)c1ccccc1,24.2
2,Cc1nc2ccccc2c2nc3ccccc3n12,30.6
3,CCCN(CCC)CCNC(=O)c1cc2c(-c3ccc(Cl)cc3)nn(C)c2s1,23.9
4,COc1ccc(NC(=O)/C(Cl)=C(/Cl)S(=O)Cc2ccc(C)cc2)cn1 (configuration not stated),< 0.2
5,CCCCCCCCNC(C)C(O)c1ccc(SC(C)C)cc1 (configuration not stated),25
6,NC(=S)NNc1ccc(Cl)c(Cl)c1,7.82
7,COc1cc(N)c(Cl)cc1C(=O)N[C@H]1CCN(CCCOc2ccc(F)cc2)C[C@H]1OC,48.7
8,O=C(CSc1ccc(Cl)cc1)N1CCC(c2nc3ccccc3s2)CC1,53.8
9,C#CCOC(=O)/C(=C/C=C/c1ccccc1)NC(=O)c1ccccc1,27.1
10,COc1cccc(C2C3=C(N=c4s/c(=C\c5cccc(O)c5)c(=O)n42)c2ccccc2CC3)c1OC (configuration not stated),22.7
11,Oc1ccc(C[C@H]2CNCCN2CCCCC2CCCCC2)cc1,40
12,Cc1ccc(C(=O)C2CCN(CC(=O)Nc3nc(C)cs3)CC2)cc1,48.4
13,Cc1ccc(N2CCN(C(=O)c3cn(CC4CCCCC4)nn3)C(C)C2)cc1 (configuration not stated),39.5
14,COc1cccc(COC(=O)c2ccc3c(=O)n4c(nc3c2)CCC4)c1OC,28.2
15,CN(C(=O)c1cccc(Nc2ccc(-c3ccc4c(c3)OCCO4)nn2)c1)C1CCCCC1,69.2
16,c1ccc(-c2ccc(C(c3ccccc3)n3ccnc3)cc2)cc1 (configuration not stated),23.2
17,O=C(NCCc1ccc(Cl)cc1)c1ccc(CS(=O)Cc2ccc(Cl)cc2)o1 (configuration not stated),45.2
18,Cc1ccc(C)c(N2CCN(C(=S)Nc3ccc4nc(N5CCN(C)CC5)cc(C)c4c3)CC2)c1,35.7
19,Cc1ccc2c(c1)C1C[N+](C)(CC(=O)c3ccc(Cl)cc3Cl)CCC1N2C(=O)c1ccc(F)cc1 (configuration not stated),32.2
20,COc1ccc(N(CC(=O)Nc2ccccc2C(N)=O)S(=O)(=O)c2ccc(C)c([N+](=O)[O-])c2)cc1,96.9
21,CCn1cc([N+](=O)[O-])c(C(=O)N2N=C(c3ccc4ccccc4c3)CC2c2ccccc2O)n1 (configuration not stated),50.1

row,Structure (SMILES),IC50 [µM]
1,Cc1ccc(C(=O)/C=C/C(=O)c2ccc(C)cc2)cc1,4.34
2,CCOc1cccc(/C=C/c2ccc3cccc(O)c3n2)c1O,4.28
3,Cc1ccc(CNc2ccc3c(c2)ncn3C(C)(C)C)cc1,19.9
4,Cc1[nH]n(S(=O)(=O)Cc2ccccc2)c(=O)c1N=Nc1ccccc1Cl,18.3
5,CCOC(=O)c1ccc(-n2c(CCC(=O)O)ccc2-c2cccs2)cc1,20.8
6,Cc1cc(/C=C\c2ccc3cc(N(C)C)ccc3[n+]2C)c(C)n1-c1ccccc1,3.26
7,COC(=O)CSc1nnc([C@H](CC(C)C)NC(=O)OC(C)(C)C)o1,21.9
8,CCOC(=O)C(C)Oc1ccc(NC(=O)C(Cl)(Cl)Cl)cc1 (configuration not stated),3.99
9,CC1(c2nnc(-c3ccncc3)o2)CC(c2ccccc2)=NO1 (configuration not stated),68.5
10,CCCn1c(=N)n(CC(=O)c2ccc(OCC(=O)OC)cc2)c2ccccc21,20.1
11,Cc1ccc(OCc2cc(C(=O)N(C)Cc3cnc4ccccn34)no2)cc1C,35.1
12,O=C(CCl)N1CCCC1c1ccc2c(c1)OCCO2 (configuration not stated),8.76
13,COc1cc2ccccc2cc1C(=O)Nc1ccc(Cc2ccncc2)cc1,18.9
14,CCOC(=O)c1sc2nc(C)nc(SC(C)C(=O)N(C)c3ccccc3)c2c1C (configuration not stated),34.8
15,CN1CCc2cc3c(c4c2C1Cc1ccccc1-4)OCO3 (configuration not stated),2.35
16,COc1ccc(C)c2sc(N(CCN(C)C)C(=O)/C=C/c3cccs3)nc12,30.6
17,c1ccc(C[C@H]2CN=C(Nc3ccccc3)N2CCCC2CCCC2)cc1,33.1
18,CCOc1ccc2nc(NC(=O)C34CC5CC(CC(NC(C)=O)(C5)C3)C4)sc2c1,23.2
19,CC(C)OC(=O)CSc1nc2ccccc2s1,22.1
20,CCCCCCC[N+](CC)(CC)CCCCc1ccc(Cl)cc1,37.1
21,CCCC(NCC(O)COc1ccc(-c2ccccc2)cc1)c1ccccc1 (configuration not stated),12.8

row,Structure (SMILES),IC50 [µM]
1,CC1=NN(c2ccccc2)C(=O)C1C(=O)c1ccccc1 (configuration not stated),50.6
2,CC(=O)Nc1sc2c(c1-c1nc3ccccc3s1)CCN(C(C)C)C2,8.64
3,CCc1cc(OCCCCNCc2ccccc2)ccc1Cl,26.9
4,COc1nc(-c2ccccc2)cc(-c2ccc(OC)c(OC)c2)n1,86.4
5,CC(=O)n1cc(N(C(=O)CCl)c2ccc(Cl)cc2)c2ccccc21,3.7
6,CCCCCCCCNC(=O)CCNC(=O)c1ccc(C(C)(C)C)cc1,34.3
7,CCOC(=O)C1=NOC(CNc2ncc(C(F)(F)F)cc2Cl)C1 (configuration not stated),11.3
8,O=C(c1ccc(Cl)cc1)N1N=C(c2ccccn2)CC1(O)C(F)(F)F (configuration not stated),25.7
9,Clc1ccc2c(c1)CCc1cccnc1C2=C1CCNCC1,32.9
10,CCC1=C(OC(=O)N(CC)CC)N2C(=O)OC(=NCCc3c[nH]c4ccccc34)[C@]2(Cc2ccccc2)[C@H]2C1=CC[C@H]1C(=O)NC(=O)[C@H]12,30.6
11,CC(/C=N/NC(=O)c1cc(-c2ccc3ccccc3c2)n[nH]1)=C\c1ccco1,43.8
12,COc1cc2c(cc1OC)CN(CCC(=O)c1ccc(Br)cc1)CC2,23.4
13,COc1ccc(C2CC(=O)c3cnc(Nc4cc(C)cc(C)c4)nc3C2)cc1 (configuration not stated),20.5
14,Cc1nc2ccc(NC(=O)c3ccc([N+](=O)[O-])cc3[N+](=O)[O-])cc2s1,35.7
15,FC(F)(F)c1cc(CO[C@@H]2CCCN[C@@H]2c2ccccc2)cc(C(F)(F)F)c1,27.4
16,OC(CNCC(c1ccc(Cl)cc1Cl)c1c[nH]c2ccccc12)c1ccccc1 (configuration not stated),22.9
17,O=C(Nc1ccc([N+](=O)[O-])cc1)Nc1ccc(OC(F)F)c(Cl)c1,2.5
18,O=C(Nc1nc(-c2cc(Cl)sc2Cl)cs1)c1cccs1,67.7
19,O=C(COC(=O)C1=COCCO1)NCc1ccc(Cl)cc1,28.1

# Same assay, conditions: measured here: IC90 growth inhibition
row,Structure (SMILES),IC90 [µM]
1,CCCOC(=O)/C(=C\c1ccc([N+](=O)[O-])o1)NC(=O)c1ccccc1,> 100
